Source: US7244557B2, “Method of screening modulators of Nod1 signaling” (Regents of the University of Michigan, priority 2003, dated 2007)

Molecular target: T1, NOD1ΔLRR (Homo sapiens, UniProt Q9Y239)
T1 construct: pcDNA3-NOD1-ΔLRR(1–648)-FLAG; expressed in transfected cells; host or cells: HEK293T
T1 sequence (Q9Y239 1-648): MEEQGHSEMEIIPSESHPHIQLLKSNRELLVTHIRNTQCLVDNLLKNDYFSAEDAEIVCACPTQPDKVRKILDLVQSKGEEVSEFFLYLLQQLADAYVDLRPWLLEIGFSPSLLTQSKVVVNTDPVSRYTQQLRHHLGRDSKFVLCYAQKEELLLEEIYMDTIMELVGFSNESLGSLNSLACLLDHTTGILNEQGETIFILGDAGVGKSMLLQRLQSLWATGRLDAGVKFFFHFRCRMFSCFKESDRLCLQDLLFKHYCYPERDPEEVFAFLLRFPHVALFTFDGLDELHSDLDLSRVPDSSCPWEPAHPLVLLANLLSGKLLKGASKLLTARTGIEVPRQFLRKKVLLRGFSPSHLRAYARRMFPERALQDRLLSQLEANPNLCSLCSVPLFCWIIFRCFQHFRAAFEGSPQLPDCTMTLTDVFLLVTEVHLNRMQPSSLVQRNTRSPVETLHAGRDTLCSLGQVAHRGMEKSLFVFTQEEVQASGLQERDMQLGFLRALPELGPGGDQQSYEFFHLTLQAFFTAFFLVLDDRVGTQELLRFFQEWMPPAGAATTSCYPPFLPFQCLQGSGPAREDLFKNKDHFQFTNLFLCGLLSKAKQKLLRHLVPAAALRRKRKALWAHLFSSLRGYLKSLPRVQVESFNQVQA
Assay: NF-κB activation assay, cells expressing mutant NOD1 lacking LRRs
Format: cell-based
Method: A) Structure of purified PGN fraction from B. subtilis (GM3P) and synthetic PGN-related compounds used in the study. B) Structure of MDP and four copies of GlcNAc-MurNAc with attached L-Ala-γ-D-Gln (4 mer) are indicated by closed and dotted boxes, respectively. C) The ability of cells were transfected with 0.3 ng pcDNA3-NOD1-Flag, 0.1 ng pcDNA3-Nod2 (NOD2) or vector control and reporter pBxIV-luc and pEF-BOS-β-gal plasmids to activate NF-κB. D) The ability of synthetic peptides, iE-DAP and iQ-DAP to stimulate NF-κB activation in the presence of control vector (−) and plasmids encoding NOD1 wild-type, mutant NOD1 lacking LRRs (NOD1ΔLRR) and NOD2. E) The ability of iE-DAP, iQ-DAP and sBLP (1 μg/ml) to activate NF-κB.
Reagents. LPS from S. typhimurium, intact and alkaline-detoxified LPS from E. coli O55:B5 as well as purified lipid A preparations of E. coli F583, MDP, DAP and dsRNA were obtained from Sigma-Aldrich (St. Louis, Mo.). PGN from S. aureus was from Fluka-Chemie (Buchs, Germany). Palmitoyl-Cys ((RS)-2,3-di(palmitoyloxy)-propyl)-Ala-Gly) (sBLP), was obtained from Bachem (Torrance, Calif.). […] The amino acid composition of E. coli O55:B5 LPS was determined using AccQ·Tag amino acid analysis system (Waters, Milford, Mass.) after hydrolysis at 110° C. for 24 hr. […]

## γ-D-glutamy-meso-diaminopimelic acid [iE-DAP]
  NF-κB activation by mutant NOD1 lacking the LRRs: did not respond
